Here are results for 14 compounds from patent US8455665B2, “3-phenoxymethylpyrrolidine compounds” (Theravance, Inc., priority 2009, dated 2013).

Where only a bound is given, the exact number is not on record here.

In assay [1] the target is T1, SERT (Homo sapiens, UniProt P31645). Put plainly: hSERT membrane radioligand binding assay (3H-citalopram). Conditions: hSERT membranes (HEK-293), 1.0 nM 3H-citalopram; for Ki: read-out: SERT pKi (converted). The arrangement: expressed in transfected cells; host or cells: HEK-293. The protocol:
(§1) Membrane radioligand binding assays were used to measure inhibition of labeled ligand (^3H-citalopram or ^3H-nisoxetine or ^3H-WIN35428) binding to membranes prepared from cells expressing the respective human recombinant transporter (hSERT or hNET or hDAT) in order to determine the pKi values of test compounds at the transporters.
(§2) Recombinant human embryonic kidney (HEK-293) derived cell lines stably transfected with hSERT or hNET, respectively, were grown in DMEM medium supplemented with 10% dialyzed FBS (for hSERT) or FBS (for hNET), 100 μg/ml penicillin, 100 μg/ml streptomycin, 2 mM L-glutamine and 250 μg/ml of the aminoglycoside antibiotic G418, in a 5% CO2 humidified incubator at 37° C. When cultures reached 80% confluence, the cells were washed thoroughly in PBS (without Ca^2+ and Mg^2+) and lifted with 5 mM EDTA in PBS. Cells were pelleted by centrifugation, resuspended in lysis buffer (10 mM Tris-HCl, pH7.5 containing 1 mM EDTA), homogenized, pelleted by centrifugation, then resuspended in 50 mM Tris-HCl, pH 7.5 and 10% sucrose at 4° C. Protein concentration of the membrane suspension was determined using a Bio-Rad Bradford Protein Assay kit. Membranes were snap frozen and stored at −80° C. Chinese hamster ovary membranes expressing hDAT (CHO-DAT) were purchased from PerkinElmer and stored at −80° C.
(§3) Binding assays were performed in a 96-well assay plate in a total volume of 200 μl assay buffer (50 mM Tris-HCl, 120 mM NaCl, 5 mM KCl, pH 7.4) with 0.5, 1, and 3 μg membrane protein, for SERT, NET and DAT, respectively.
(§4) Stock solutions (10 mM in DMSO) of test compound were prepared and serial dilutions made using Dilution Buffer (50 mM Tris-HCl, 120 mM NaCl, 5 mM KCl, pH 7.4, 0.1% BSA, 400 μM ascorbic acid). Non-specific radioligand binding was determined in the presence of 1 μM duloxetine, 1 μM desipramine or 10 μM GBR12909 (each in Dilution Buffer) for the hSERT, hNET or hDAT assays, respectively.
(§5) Following a 60 minute incubation at 22° C. (or a period sufficient to reach equilibrium), the membranes were harvested by rapid filtration over a 96-well UniFilter GF/B plate, pretreated with 0.3% polyethyleneimine, and washed 6 times with […] (50 mM Tris-HCl, 0.9% NaCl, pH 7.5 at 4° C.). Plates were dried overnight at room temperature, approximately […] of MicroScint™-20 (Perkin Elmer) added and bound radioactivity quantitated via liquid scintillation spectroscopy. Inhibition curves and saturation isotherms were analyzed using GraphPad Prism Software package (GraphPad Software, Inc., San Diego, Calif.). IC50 values were generated from concentration response curves using the Sigmoidal Dose Response (variable slope) algorithm in Prism GraphPad. Kd and Bmax values for the radioligand were generated from saturation isotherms using the Saturation Binding Global Fit algorithm in Prism GraphPad. pKi (negative decadic logarithm of Ki) values for test compounds were calculated from the best-fit IC50 values, and the Kd value of the radioligand, using the Cheng-Prusoff equation (Cheng & Prusoff (1973) Biochem. Pharmacol. 22(23):3099-3108): Ki=IC50/(1+[L]/Kd), where [L]=concentration radioligand.
Target sequence in this assay (P31645 whole entry): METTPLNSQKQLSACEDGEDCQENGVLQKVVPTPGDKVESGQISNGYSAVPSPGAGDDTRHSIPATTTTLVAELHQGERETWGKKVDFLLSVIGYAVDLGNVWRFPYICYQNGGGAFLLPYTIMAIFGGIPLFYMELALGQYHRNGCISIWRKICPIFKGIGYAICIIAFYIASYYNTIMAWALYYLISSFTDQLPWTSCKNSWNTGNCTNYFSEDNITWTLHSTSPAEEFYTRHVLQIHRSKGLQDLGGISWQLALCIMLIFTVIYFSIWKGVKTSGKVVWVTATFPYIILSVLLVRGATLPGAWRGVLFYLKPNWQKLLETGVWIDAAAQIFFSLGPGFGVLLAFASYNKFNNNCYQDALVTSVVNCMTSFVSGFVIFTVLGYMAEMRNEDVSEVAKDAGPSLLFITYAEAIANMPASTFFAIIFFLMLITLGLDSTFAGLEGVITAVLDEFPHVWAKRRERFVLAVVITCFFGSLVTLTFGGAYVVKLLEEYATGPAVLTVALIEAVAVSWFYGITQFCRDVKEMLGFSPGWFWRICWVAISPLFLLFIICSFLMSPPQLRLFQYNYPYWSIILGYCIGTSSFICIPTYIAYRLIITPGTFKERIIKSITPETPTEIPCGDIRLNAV

In assay [2] the target is T2, NET (Homo sapiens, UniProt P23975). Kind of assay: hNET membrane radioligand binding assay (3H-nisoxetine). The arrangement: expressed in transfected cells; host or cells: HEK-293. Particulars: hNET membranes (HEK-293), 1.0 nM 3H-nisoxetine; for Ki: read-out: NET pKi (converted). Here is the method: as §1, §2, §3, §4, §5
T2 sequence (P23975 whole entry): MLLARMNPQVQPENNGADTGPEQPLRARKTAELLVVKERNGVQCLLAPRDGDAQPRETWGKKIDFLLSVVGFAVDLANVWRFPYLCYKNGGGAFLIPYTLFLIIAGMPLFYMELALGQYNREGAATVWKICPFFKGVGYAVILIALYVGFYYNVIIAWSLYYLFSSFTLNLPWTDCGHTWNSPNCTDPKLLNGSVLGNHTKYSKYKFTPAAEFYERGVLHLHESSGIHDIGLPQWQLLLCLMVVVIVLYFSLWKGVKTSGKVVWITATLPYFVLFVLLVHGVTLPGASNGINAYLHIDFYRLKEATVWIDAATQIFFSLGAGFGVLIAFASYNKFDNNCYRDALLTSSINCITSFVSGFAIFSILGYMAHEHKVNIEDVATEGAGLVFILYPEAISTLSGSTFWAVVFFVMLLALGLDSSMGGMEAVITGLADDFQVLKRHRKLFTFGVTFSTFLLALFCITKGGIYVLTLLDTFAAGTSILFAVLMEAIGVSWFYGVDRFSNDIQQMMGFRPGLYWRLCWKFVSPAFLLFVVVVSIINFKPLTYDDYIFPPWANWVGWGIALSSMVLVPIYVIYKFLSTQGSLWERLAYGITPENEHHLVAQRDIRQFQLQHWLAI
The target of assay [3] is T1, SERT. Put plainly: hSERT neurotransmitter uptake assay (3H-5-HT). In kind it is cell-based. More on the design: expressed in transfected cells; host or cells: HEK-293. Conditions: serotonin reuptake inhibition, HEK-293 hSERT cells, 3H-5-HT (no asterisk); read-out: SERT pIC50 (converted). Here is the method: (§6) Neurotransmitter uptake assays were used to measure inhibition of ^3H-serotonin (^3H-5-HT), ^3H-norepinephrine (^3H-NE), and ^3H-dopamine (^3H-DA) uptake into cells expressing the respective transporter (hSERT, hNET or hDAT) in order to determine the pIC50 values of test compounds at the transporters.
(§7) HEK-293 derived cell lines stably-transfected with hSERT, hNET, or hDAT, respectively, were grown in DMEM medium supplemented with 10% dialyzed FBS (for hSERT) or FBS (for hNET and hDAT), 100 μg/ml penicillin, 100 μg/ml streptomycin, 2 mM L-glutamine and 250 μg/ml of the aminoglycoside antibiotic G418 (for hSERT and hNET) or 800 ug/ml (for hDAT), in a 5% CO2 humidified incubator at 37° C. When cultures reached 80% confluence, the cells were washed thoroughly in PBS (without Ca^2+ and Mg^2+) and lifted with 5 mM EDTA in PBS. Cells were harvested by centrifugation at 1100 rpm for 5 minutes, washed once by resuspension in PBS, then centrifuged. The supernatant was discarded and the cell pellet resuspended, by gentle trituration, in room temperature Krebs-Ringer bicarbonate buffer containing HEPES (10 mM), CaCl2 (2.2 mM), ascorbic acid (200 μM) and pargyline (200 μM), pH 7.4. The final concentration of cells in the cell suspension was 7.5×10^4 cells/ml, 1.25×10^5 cells/ml, and 5.0×10^4 cells/ml for SERT, NET, and DAT cell lines, respectively.
(§8) Neurotransmitter uptake assays were performed in a 96-well assay plate in a total volume of 400 μl assay buffer (Krebs-Ringer bicarbonate buffer containing HEPES (10 mM), CaCl2 (2.2 mM), ascorbic acid (200 μM) and pargyline (200 μM), pH 7.4) with 1.5×10^4 and 2.5×10^4 cells, for SERT, NET, and DAT, respectively. […] Stock solutions (10 mM in DMSO) of test compound were prepared and serial dilutions prepared using 50 mM Tris-HCl, 120 mM NaCl, 5 mM KCl, pH 7.4, 0.1% BSA, 400 μM ascorbic acid. Test compounds were incubated for 30 minutes at 37° C. with the respective cells, prior to addition of radiolabeled neurotransmitter, ^3H-5-HT (20 nM final concentration), ^3H-NE (50 nM final concentration) or ^3H-DA (100 nM final concentration). Non-specific neurotransmitter uptake was determined in the presence of 2.5 μM duloxetine, 2.5 μM desipramine, or 10 uM GBR-12909 (each in Dilution Buffer) for the hSERT, hNET, or hDAT assays, respectively.
(§9) Following a 10 minute incubation, at 37° C., with radioligand, the cells were harvested by rapid filtration over a 96-well UniFilter GF/B plate, pretreated with 1% BSA, and washed 6 times with 650 μl wash buffer (ice cold PBS). Plates were dried overnight at 37° C., ˜45 μl of MicroScint™-20 (Perkin Elmer) added and incorporated radioactivity quantitated via liquid scintillation spectroscopy Inhibition curves were analyzed using GraphPad Prism Software package (GraphPad Software, Inc., San Diego, Calif.). IC50 values were generated from concentration response curves using the Sigmoidal Dose Response (variable slope) algorithm in Prism GraphPad.
Target sequence in this assay (P31645 whole entry): as the sequence (P31645 whole entry) above

Assay [4] addresses T2, NET. Put plainly: hNET neurotransmitter uptake assay (3H-NE). It is filed as cell-based. More on the design: expressed in transfected cells; host or cells: HEK-293. Conditions: norepinephrine reuptake inhibition, HEK-293 hNET cells, 3H-NE (no asterisk); for IC50: read-out: NET pIC50 (converted). Here is the method: as §6, §7, §8, §9
Assay [5] deals with T1, SERT. Put plainly: fluorescence-based serotonin uptake assay (Tsuruda et al. 2010). It is filed as cell-based. Conditions: serotonin reuptake inhibition, fluorescence-based assay (data indicated by an asterisk); read-out: SERT pIC50 (converted).
Target sequence in this assay (P31645 whole entry, species assumed): as the sequence (P31645 whole entry) above
The target in assay [6] is T2, NET. Put plainly: fluorescence-based norepinephrine uptake assay (Tsuruda et al. 2010). Particulars: norepinephrine reuptake inhibition, fluorescence-based assay (data indicated by an asterisk); read-out: NET pIC50 (converted). In kind it is cell-based.

Consider `COCC(Oc1cccc(Cl)c1Cl)C1CCNC1` (stereo not drawn) [Example 4-5, 3-[1-(2,3-Dichlorophenoxy)-2-methoxyethyl]pyrrolidine], for which the Ki on SERT [1] and on NET [2] was at most 10 nM each time. The values for the IC50 at SERT [3] and on NET [4] were at most 100 nM and at most 10 nM, respectively.

Take `Clc1cc(Cl)cc(O[C@H](C2CCOCC2)[C@@H]2CCNC2)c1` [Example 13-29, (R)-3-[(R)-(3,5-Dichlorophenoxy)(tetrahydropyran-4-yl)methyl]pyrrolidine]: the Ki at SERT [1] and on NET [2] was at most 10 nM in each case. Moreover, the IC50 at SERT [3] and at NET [4] was at most 100 nM in each case.

Turning to `FC(F)(F)c1c(Cl)cccc1O[C@H](C1CCOCC1)[C@@H]1CCNC1` [Example 13-20, (R)-3-[(R)-(3-Chloro-2-trifluoromethylphenoxy)(tetrahydropyran-4-yl)-methyl]-pyrrolidine], the Ki on SERT [1] and at NET [2] was at most 10 nM throughout. Further, the IC50 at SERT [3] is at most 100 nM; at NET [4], at most 10 nM.

Consider `COCCC(Oc1ccc(Cl)cc1C)C1CCNC1` (single isomer, unassigned) [5 (2nd peak)], for which, on SERT [1], the “SERT pKi” value is given as “≧8.0”. On NET [2], the Ki is at most 10 nM. The IC50 at SERT [3] and on NET [4] was at most 10 nM throughout.

Take `Fc1cccc(O[C@@H](C2CCOCC2)[C@@H]2CCNC2)c1Cl` [Example 13-17, (R)-3-[(S)-(2-Chloro-3-fluorophenoxy)(tetrahydropyran-4-yl)methyl]pyrrolidine]: the Ki on SERT [1] and on NET [2] was at most 10 nM throughout. The IC50 at SERT [3] and at NET [4] was at most 10 nM each time.

On to `COCC(Oc1cccc(Cl)c1C(F)(F)F)C1CCNC1` (stereo not drawn) [Example 4-18, 3-[1-(3-Chloro-2-trifluoromethylphenoxy)-2-methoxyethyl]pyrrolidine], for which the Ki at SERT [1] and at NET [2] was at most 10 nM in each case. Further, the figures for the IC50 on SERT [3] and on NET [4] were at most 100 nM and at most 10 nM, respectively.

With `CCOC[C@H](Oc1cccc2ccccc12)[C@H]1CCNC1` [Example 11, (S)-3-[(R)-2-Ethoxy-1-(naphthalen-1-yloxy)ethyl]pyrrolidine], the IC50 on SERT [3] and at NET [4] was at most 10 nM throughout.

Consider `COCC(Oc1cccc(Cl)c1Cl)C1CCNC1` (stereo not drawn) [Example 4-6, 3-[1-(2,3-Dichlorophenoxy)-2-methoxyethyl]pyrrolidine], for which, at SERT [1], the “SERT pKi” value is on record as “≧8.0”. Moreover, the “NET pKi” value on NET [2] is recorded as “≧8.0”. The “NET pIC50” value on NET [4] is “≧8.0”.

With `CCOC[C@@H](Oc1cccc(Cl)c1Cl)[C@H]1CCNC1` [Example 7-8, (S)-3-[(S)-1-(2,3-Dichlorophenoxy)-2-ethoxyethyl]pyrrolidine], the Ki at SERT [1] and on NET [2] was at most 10 nM throughout. Also, the IC50 on SERT [3] and at NET [4] was at most 10 nM in each case.

Turning to `COC[C@@H](Oc1ccc(Cl)cc1Cl)[C@H]1CCNC1` [Example 4-23, (S)-3-[(S)-1-(2,4-Dichlorophenoxy)-2-methoxyethyl]pyrrolidine], the values for the Ki at SERT [1] and on NET [2] were at most 10 nM and at most 100 nM, respectively. Moreover, the IC50 is at most 10 nM at SERT [3] and at most 100 nM on NET [4].

Take `Clc1cccc(O[C@H](C2CCOCC2)[C@@H]2CCNC2)c1Cl` [Example 13-13, (R)-3-[(R)-(2,3-Dichlorophenoxy)(tetrahydropyran-4-yl)methyl]pyrrolidine]: the Ki on SERT [1] and on NET [2] was at most 10 nM each time. The results for the IC50 at SERT [3] and at NET [4] were at most 100 nM and at most 10 nM, respectively.

`OC[C@@H](Oc1ccc(Cl)cc1Cl)[C@@H]1CCNC1` (stereo in doubt) [Example 2-1, (R)-2-(2,4-Dichlorophenoxy)-2-(S)-pyrrolidin-3-yl-ethanol]: the IC50 on SERT [3] and on NET [4] was at most 100 nM in each case.

With `Cc1c(Cl)cccc1O[C@@H](COC(C)C)[C@@H]1CCNC1` [Example 9-14, (R)-3-[(R)-1-(3-Chloro-2-methylphenoxy)-2-isopropoxyethyl]pyrrolidine], the IC50 at SERT [5] is at most 10 nM; at NET [6] it was at most 100 nM. For the same compound, the Ki at SERT [1] was at most 10 nM; on NET [2], at most 100 nM.

Take `CC(C)OC[C@H](Oc1cccc(Cl)c1Cl)[C@@H]1CCNC1` [Example 9-6, (R)-3-[(R)-1-(2,3-Dichlorophenoxy)-2-isopropoxyethyl]pyrrolidine]: the IC50 on SERT [5] and at NET [6] was at most 100 nM throughout. Besides, the Ki on SERT [1] was at most 10 nM; at NET [2] it was at most 100 nM.
